The subject of one data set is SKOV-3 cancer cell lines. The data set can be described thus: SKOV-3 cell viability after treatment with 10 μM test compound. The format is cell-based. The following applies: 10 micromolar test compound, hydrochloride. The method, then: SKOV-3 cancer cell lines were treated with a test compound, either as a pure enantiomer or a mixture of stereoisomers, at a concentration of 10 μM. Cell viability was evaluated following treatment with a compound as disclosed in Table B. Viability of cancer cells following treatment is indicated according to the following legend:
A=0-25% viability B=26-50% viability C=>50% viability

A further data set has as its target XIAP-BIR3 (Homo sapiens (Human), UniProt P98170). The data set can be described thus: Fluorescence polarization (FP) assay, inhibition of SMAC peptide binding. As to the method: Compounds of the present disclosure were evaluated for potency and selectivity in a fluorescence polarization (FP) assay that measures inhibition of SMAC peptide binding to ML-IAP. To measure SMAC peptide binding, multi-well plate format FP assays based on the ability of SMAC peptides to bind the BIR domains of several IAPs are used to generate IC50 and Ki values for analogues. The FP assays utilize plasmid constructs encoding various full length IAPs or fragments for expression as either GST or His6-fusion proteins in bacteria. Compounds are evaluated for activity against several members of the IAP family, including the BIR domains of XIAP, cIAP1 and cIAP2 in order to generate selectivity profiles of the compounds disclosed herein. These assays also enable the identification and characterization of potency profiles of ML-IAP binding.
Activity of the compounds are indicated according to the following legend: […]
In general terms: Fluorescence polarisation rises when a labelled molecule tumbles more slowly, as on binding a larger partner.

In the next data set the test system is SKOV-3. The data set can be described thus: Cell viability (CellTiterGlo), SKOV-3. The format is cell-based. Conditions: Homo sapiens, SK-OV-3. The method, then: (§1) Candidate compounds are tested in 384-well plates for effects on cell viability in the presence or absence of an appropriate conventional anticancer drug. Cell viability is indirectly monitored in the first instance using CellTiterGlo (Promega Corp., Madison, WI) (Table D). To determine if cell death is apoptotic, the induction of caspase activity is assessed utilizing the CaspaseGlo Assay system (Promega Corp., Madison, WI) (Table E). Cell viability is monitored 1 to 3 days after addition of compounds and conventional drugs. […] A compound of any of the formulae as disclosed herein is evaluated in combination with said anticancer drug to determine which ML-IAP antagonist can sensitize most efficaciously. Select candidate compounds are tested in 14 point drug dose response (DDR) curves in a 384-well format in order to establish potency in combination with decreasing concentrations of lung cancer relevant drug regimens. Furthermore, checker-board titrations of a conventional drug and the candidate molecules are performed to search for synergy (using ISOBOLOGRAM analysis). Compounds and combinations as described herein are also tested for cytotoxicity against normal human cells (e.g. primary fibroblasts, lymphocytes, hepatocytes, epithelial and endothelial cells) using known methods.
(§2) Cell viability was evaluated following treatment with a compound as disclosed in Table D. Viability of cancer cells following treatment is indicated according to the following legend: […]

In a further data set the test system is OVCAR-4. The experiment in a line: Cell viability (CellTiterGlo), OVCAR-4. The following applies: Homo sapiens. The format is cell-based. As to the method: as §1, §2
The next data set concerns Caspase 3/7 (SKOV-3). The experiment in a line: Induction of caspase 3/7 activity (CaspaseGlo), SKOV-3. Conditions: Homo sapiens, SK-OV-3. In kind it is cell-based. As to the method: as §1
(§3) The induction of caspase activities was tested with a compound as disclosed in Table E. The activities are indicated according to the following legend: […]

The test system of the next data set is Caspase 3/7 (OVCAR-4). The experiment in a line: Induction of caspase 3/7 activity (CaspaseGlo), OVCAR-4. The following applies: Homo sapiens. In kind it is cell-based. The method, then:
as §1, §3

In the next data set the test system is Caspase 9 (SKOV-3). The data set can be described thus: Induction of caspase 9 activity (CaspaseGlo), SKOV-3. In kind it is cell-based. Conditions: Homo sapiens, SK-OV-3. The method, then: as §1, §3
Data set [1] in a line: In vivo PK plasma exposure in mice. The method, then:
Pharmacokinetic (PK) studies are performed in vivo in mice for compounds as described herein. Standard formulations are evaluated, including hydroxypropyl methylcellulose, carboxymethylcellulose, and polyethylene glycol. For intravenous studies, compounds are administered via indwelling catheters in jugular vein and samples collected from the carotid artery. These experiments provide basic pharmacokinetic parameters including peak plasma concentration (Cmax), bioavailability (% F), exposure (AUC), half-life (t½), clearance (CL), volume of distribution (Vd), and brain levels. To measure bioavailability, a compound as described herein is administered to three animals/group, both orally (10 mg/kg) and intravenously (1 mg/kg). Intraperitoneally administration is also assessed in order to determine both brain and plasma levels of compounds.
The compounds described herein were tested in vivo in mice to measure PK plasma exposure as shown in Table F. The PK plasma values are indicated according to the following legend: […]

The next data set has as its system H460 lung cancer cells. The data set can be described thus: Sensitization of lung cancer cells to standard of care treatment (vinorelbine). In kind it is cell-based. The following applies: combination with vinorelbine, FIG. 1. As to the method: In order to assess the role of ML-IAP antagonists in cancer treatment, H460 lung cancer cells are treated with a standard of care treatment (e.g., vinorelbine) alone or in combination with a selective ML-IAP antagonist. […] The leftward shift in the dose dependent response (DDR) curve indicates a resensitization of lung cancer cells to the anti-cancer agent. Furthermore, TNF induction is absent following treatment with a compound described herein in breast cancer MDA-MB-231 cells. This effect provides a substantial advantage clinically as it avoids an inappropriate inflammatory response.

The structures appear in SMILES notation. Where a name gives a salt, the structure may show the parent alone.

XIAP-BIR3, sequence (P98170 241-356): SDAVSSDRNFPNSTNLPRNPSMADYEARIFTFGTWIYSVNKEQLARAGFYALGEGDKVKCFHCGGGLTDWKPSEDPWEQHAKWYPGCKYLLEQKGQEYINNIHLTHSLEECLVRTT

For the compound `CCC1(CC)C[C@@H]2SCC[C@H](NC(=O)[C@H](C)NC)C(=O)N2C1C(=O)N[C@@H]1CCCc2ccccc21` (mixture of isomers) [Compound 38, (4S,9aS)-8,8-diethyl-4-((S)-2-(methylamino)propanamido)-5-oxo-N—((R)-1,2,3,4-tetrahydronaphthalen-1-yl)octahydropyrrolo[2,1-b][1,3]thiazepine-7-carboxamide hydrochloride], the “% viability after treatment with 10 micromolar of test compound (SKOV-3 cells)” value in the data set on SKOV-3 cancer cell lines is recorded as “A (A=0-25% viability)”. Besides, at XIAP-BIR3, the Ki is above 100 nM. The IC50 in the data set with SKOV-3 and in the data set on OVCAR-4 was 10 to 100 nM throughout. The EC50 with Caspase 3/7 (SKOV-3), in the data set on Caspase 3/7 (OVCAR-4) and in the data set on Caspase 9 (SKOV-3) was 1 to 10 nM each time. Moreover, the “PK plasma exposure at 1 h (IP, 10 mg/kg)” value in data set [1] is “iii (iii=500-1000 nM)”.
For `CN[C@@H](C)C(=O)N[C@H]1CCS[C@H]2CC(C)(C)C(C(=O)N[C@@H]3CCCc4ccccc43)N2C1=O` (stereo partly drawn) [Compound A, (4S,9aS)-8,8-dimethyl-4-((S)-2-(methylamino)propanamido)-5-oxo-N—((R)-1,2,3,4-tetrahydronaphthalen-1-yl)octahydropyrrolo[2,1-b][1,3]thiazepine-7-carboxamide hydrochloride], at XIAP-BIR3, the Ki fell in the range of 10 to 100 nM. The IC50 with SKOV-3 and with OVCAR-4 was 1 to 10 nM each time. Further, the EC50 is 1 to 10 nM in the data set on Caspase 3/7 (SKOV-3), 1 to 10 nM in the data set on Caspase 3/7 (OVCAR-4) and below 1 nM in the data set on Caspase 9 (SKOV-3). The “PK plasma exposure at 1 h (IP, 10 mg/kg)” value in [1] is “iii (iii=500-1000 nM)”. Moreover, the “sensitizing effect on lung cancer cells” value with H460 lung cancer cells is on record as “sensitizing effect”.

As usually defined, the Ki is a measure of affinity in units of concentration, obtained from inhibition or displacement. Lower therefore signals a stronger hold on the target. For orientation: IC50 means the point on the concentration scale where inhibition reaches its midpoint. By EC50 is commonly meant the concentration at which the effect is half-maximal.
